In ChEMBL document CHEMBL6092194, “Development of membrane-targeting chalcone derivatives as antibacterial agents against multidrug-resistant bacteria” (Eur J Med Chem, 2024):
The source made the active and inactive calls. No cut-off for these calls is given here.

Experiments:
Staphylococcus aureus [1] = assay: Disruption of preformed biofilm in Staphylococcus aureus ATCC43300 assessed as eradication of biofilm at 8 microg/ml relative to control; type: functional; conditions: dose 8 µg/ml
Staphylococcus aureus [2] = assay: Antibiofilm activity against Staphylococcus aureus ATCC43300 assessed as inhibition of biofilm formation at 8 microg/ml relative to control; type: functional
Cell membrane [3] = assay: Disruption of cell membrane in Staphylococcus aureus ATCC43300 assessed as increase in intracellular ROS level by measuring fold increase in fluorescence intensity at 8 microg/ml by DCFH-DA staining based fluorescence analysis relative to blank control group; conditions: dose 8.0 µg/ml
Cell membrane [4] = assay: Induction of cytoplasmic membrane depolarization in Staphylococcus aureus ATCC43300 assessed as increase in fluorescence intensity at 0.5 microg/ml measured after 24 mins by DiSC3(5) dye-based fluorescence assay; conditions: dose 0.5 µg/ml
Cell membrane [5] = assay: Disruption of cell membrane in Escherichia coli ATCC25922 assessed as increase in intracellular ROS level by measuring fold increase in fluorescence intensity at 8 microg/ml by DCFH-DA staining based fluorescence analysis relative to blank control group; conditions: dose 8.0 µg/ml
Cell membrane [6] = assay: Disruption of cell membrane in Staphylococcus aureus ATCC43300 assessed as appearance of red fluorescence by PI staining based fluorescence microscopic analysis

CCCCCCOc1cc[n+](CCCOc2ccc(/C=C/C(=O)c3ccc(OCCC[n+]4ccc(OCCCCCC)cc4)cc3)cc2)cc1.[Br-].[Br-]
Activity (Staphylococcus aureus [1]): 20.8%
inhibition at 8 µg/mL (Staphylococcus aureus [2]): 90.8%
fold change (FC) (Cell membrane [3]): 1.7
Activity (Cell membrane [4]): Not active; Fluorescence Intensity Remained Comparable To Negative Control
fold change (FC) (Cell membrane [5]): 1.5
Activity (Cell membrane [6]): Active
